Laboratory results from patent US20240000872A1, “NOVEL BACTERIOPHAGE THAT LYSES ACINETOBACTER GENUS BACTERIA HAVING RESISTANCE TO ANTIBIOTICS” (priority 2020, published 2024).

System: Acinetobacter baumannii strains
Experiment: Antibiotic susceptibility test (CLSI disk diffusion test method, read per CLSI 2016); for antibiotic susceptibility S/I/R: key: ‘S’ means susceptible; ‘I’ means intermediate; ‘R’ means resistant; for susceptibility category (S/I/R): key: ‘S’ means susceptible; ‘I’ means intermediate; ‘R’ means resistant
Type: cell-based
Set-up: antibiotic susceptibility test value / susceptibility test value (number given before S/I/R) / antibiotic susceptibility value: unit not given here

In the case of piperacillin-tazobactam, the antibiotic susceptibility value (host strain YMC16/01/R353) is reported as 128, the “susceptibility category (S/I/R)” value (host strain YMC16/01/R353) is reported as “R” and the “susceptibility test value (number given before S/I/R)” value (“susceptibility test value” below) (host strain YMC16/01/R353) is reported as 128. The “antibiotic susceptibility S/I/R” value (host strain YMC16/01/R380) was “R”, the antibiotic susceptibility value (host strain YMC16/01/R380) was 128 and the “susceptibility category (S/I/R)” value (host strain YMC16/01/R380) was “R”. The “susceptibility test value” value (host strain YMC16/01/R380) was 128, the “antibiotic susceptibility S/I/R” value (host strain YMC16/01/R397) was “R” and the antibiotic susceptibility value (host strain YMC16/01/R397) was 128. For the same substance, the “susceptibility category (S/I/R)” value (host strain YMC16/01/R397) was “R”, the “susceptibility test value” value (host strain YMC16/01/R397) was 128 and the “antibiotic susceptibility S/I/R” value (host strain YMC16/01/R405) was “R”. The antibiotic susceptibility value (host strain YMC16/01/R405) was 128, the “susceptibility category (S/I/R)” value (host strain YMC16/01/R405) was “R” and the “susceptibility test value” value (host strain YMC16/01/R405) was 128. For the same substance, the “antibiotic susceptibility S/I/R” value (host strain YMC16/03/R4461) was “R”, the antibiotic susceptibility value (host strain YMC16/03/R4461) was 128 and the “susceptibility category (S/I/R)” value (host strain YMC16/03/R4461) was “R”. The “susceptibility test value” value (host strain YMC16/03/R4461) was 128, the “antibiotic susceptibility S/I/R” value (host strain YMC16/05/R2210) was “R” and the antibiotic susceptibility value (host strain YMC16/05/R2210) was 128. The “susceptibility category (S/I/R)” value (host strain YMC16/05/R2210) was “R”, the “susceptibility test value” value (host strain YMC16/05/R2210) was 128 and the “antibiotic susceptibility S/I/R” value (host strain YMC16/07/R2512) was “R”. The antibiotic susceptibility value (host strain YMC16/07/R2512) was 128, the “susceptibility category (S/I/R)” value (host strain YMC16/07/R2512) was “R” and the “susceptibility test value” value (host strain YMC16/07/R2512) was 128. The “antibiotic susceptibility S/I/R” value (host strain YMC16/09/R2471) was “R”, the antibiotic susceptibility value (host strain YMC16/09/R2471) was 128 and the “susceptibility category (S/I/R)” value (host strain YMC16/09/R2471) was “R”. The “susceptibility test value” value (host strain YMC16/09/R2471) was 128, the “antibiotic susceptibility S/I/R” value (host strain YMC16/10/R2537) was “R” and the antibiotic susceptibility value (host strain YMC16/10/R2537) was 128. The “susceptibility category (S/I/R)” value (host strain YMC16/10/R2537) was “R”, the “susceptibility test value” value (host strain YMC16/10/R2537) was 128 and the “antibiotic susceptibility S/I/R” value (host strain YMC16/12/B11422) was “R”. For the same substance, the antibiotic susceptibility value (host strain YMC16/12/B11422) was 128, the “susceptibility category (S/I/R)” value (host strain YMC16/12/B11422) was “R” and the “susceptibility test value” value (host strain YMC16/12/B11422) was 128. For the same substance, the “antibiotic susceptibility S/I/R” value (host strain YMC16/12/B11449) was “R”, the antibiotic susceptibility value (host strain YMC16/12/B11449) was 128 and the “susceptibility category (S/I/R)” value (host strain YMC16/12/B11449) was “R”. For the same substance, the “susceptibility test value” value (host strain YMC16/12/B11449) was 128, the “antibiotic susceptibility S/I/R” value (host strain YMC16/12/B13325) was “R” and the antibiotic susceptibility value (host strain YMC16/12/B13325) was 128. The “susceptibility category (S/I/R)” value (host strain YMC16/12/B13325) was “R”, the “susceptibility test value” value (host strain YMC16/12/B13325) was 128 and the “antibiotic susceptibility S/I/R” value (host strain YMC16/12/P503) was “R”. The antibiotic susceptibility value (host strain YMC16/12/P503) was 128, the “susceptibility category (S/I/R)” value (host strain YMC16/12/P503) was “R” and the “susceptibility test value” value (host strain YMC16/12/P503) was 128. The “antibiotic susceptibility S/I/R” value (host strain YMC16/12/R4637) was “R”, the antibiotic susceptibility value (host strain YMC16/12/R4637) was 128 and the “susceptibility category (S/I/R)” value (host strain YMC16/12/R4637) was “R”. For the same substance, the “susceptibility test value” value (host strain YMC16/12/R4637) was 128, the “antibiotic susceptibility S/I/R” value (host strain YMC17/01/B8053) was “R” and the antibiotic susceptibility value (host strain YMC17/01/B8053) was 128. The “susceptibility category (S/I/R)” value (host strain YMC17/01/B8053) was “R”, the “susceptibility test value” value (host strain YMC17/01/B8053) was 128 and the “antibiotic susceptibility S/I/R” value (host strain YMC17/01/B10087) was “R”. The antibiotic susceptibility value (host strain YMC17/01/B10087) was 128, the “susceptibility category (S/I/R)” value (host strain YMC17/01/B10087) was “R” and the “susceptibility test value” value (host strain YMC17/01/B10087) was 128. For the same substance, the “antibiotic susceptibility S/I/R” value (host strain YMC17/01/B12075) was “R”, the antibiotic susceptibility value (host strain YMC17/01/B12075) was 128 and the “susceptibility category (S/I/R)” value (host strain YMC17/01/B12075) was “R”. For the same substance, the “susceptibility test value” value (host strain YMC17/01/B12075) was 128, the “antibiotic susceptibility S/I/R” value (host strain YMC17/01/B13454) was “R” and the antibiotic susceptibility value (host strain YMC17/01/B13454) was 128. The “susceptibility category (S/I/R)” value (host strain YMC17/01/B13454) was “R”, the “susceptibility test value” value (host strain YMC17/01/B13454) was 128 and the “antibiotic susceptibility S/I/R” value (host strain YMC17/01/P518) was “R”. For the same substance, the antibiotic susceptibility value (host strain YMC17/01/P518) was 128, the “susceptibility category (S/I/R)” value (host strain YMC17/01/P518) was “R” and the “susceptibility test value” value (host strain YMC17/01/P518) was 128. For the same substance, the “antibiotic susceptibility S/I/R” value (host strain YMC17/01/R2812) was “R”, the antibiotic susceptibility value (host strain YMC17/01/R2812) was 128 and the “susceptibility category (S/I/R)” value (host strain YMC17/01/R2812) was “R”. For the same substance, the “susceptibility test value” value (host strain YMC17/01/R2812) was 128, the “antibiotic susceptibility S/I/R” value (host strain YMC17/02/B14) was “R” and the antibiotic susceptibility value (host strain YMC17/02/B14) was 128. The “susceptibility category (S/I/R)” value (host strain YMC17/02/B14) was “R”, the “susceptibility test value” value (host strain YMC17/02/B14) was 128 and the “antibiotic susceptibility S/I/R” value (host strain YMC17/02/B87) was “R”. For the same substance, the antibiotic susceptibility value (host strain YMC17/02/B87) was 128, the “susceptibility category (S/I/R)” value (host strain YMC17/02/B87) was “R” and the “susceptibility test value” value (host strain YMC17/02/B87) was 128. The “antibiotic susceptibility S/I/R” value (host strain YMC17/02/B721) was “R”, the antibiotic susceptibility value (host strain YMC17/02/B721) was 128 and the “susceptibility category (S/I/R)” value (host strain YMC17/02/B721) was “R”. For the same substance, the “susceptibility test value” value (host strain YMC17/02/B721) was 128, the “antibiotic susceptibility S/I/R” value (host strain YMC17/02/B4039) was “R” and the antibiotic susceptibility value (host strain YMC17/02/B4039) was 128. For the same substance, the “susceptibility category (S/I/R)” value (host strain YMC17/02/B4039) was “R”, the “susceptibility test value” value (host strain YMC17/02/B4039) was 128 and the “antibiotic susceptibility S/I/R” value (host strain YMC17/02/B4520) was “R”. For the same substance, the antibiotic susceptibility value (host strain YMC17/02/B4520) was 128, the “susceptibility category (S/I/R)” value (host strain YMC17/02/B4520) was “R” and the “susceptibility test value” value (host strain YMC17/02/B4520) was 128. For the same substance, the “antibiotic susceptibility S/I/R” value (host strain YMC17/02/B4864) was “S”, the antibiotic susceptibility value (host strain YMC17/02/B4864) was 4 and the “susceptibility category (S/I/R)” value (host strain YMC17/02/B4864) was “S”. The “susceptibility test value” value (host strain YMC17/02/B4864) was 4, the “antibiotic susceptibility S/I/R” value (host strain YMC17/02/B8414) was “R” and the antibiotic susceptibility value (host strain YMC17/02/B8414) was 128. For the same substance, the “susceptibility category (S/I/R)” value (host strain YMC17/02/B8414) was “R”, the “susceptibility test value” value (host strain YMC17/02/B8414) was 128 and the “antibiotic susceptibility S/I/R” value (host strain YMC17/02/P523) was “R”. The antibiotic susceptibility value (host strain YMC17/02/P523) was 128, the “susceptibility category (S/I/R)” value (host strain YMC17/02/P523) was “R” and the “susceptibility test value” value (host strain YMC17/02/P523) was 128. The “antibiotic susceptibility S/I/R” value (host strain YMC17/02/R541) was “R”, the antibiotic susceptibility value (host strain YMC17/02/R541) was 128 and the “susceptibility category (S/I/R)” value (host strain YMC17/02/R541) was “R”. For the same substance, the “susceptibility test value” value (host strain YMC17/02/R541) was 128, the “antibiotic susceptibility S/I/R” value (host strain YMC17/02/R2392) was “R” and the antibiotic susceptibility value (host strain YMC17/02/R2392) was 128. For the same substance, the “susceptibility category (S/I/R)” value (host strain YMC17/02/R2392) was “R”, the “susceptibility test value” value (host strain YMC17/02/R2392) was 128 and the “antibiotic susceptibility S/I/R” value (host strain YMC17/03/B4730) was “R”. For the same substance, the antibiotic susceptibility value (host strain YMC17/03/B4730) was 128, the “susceptibility category (S/I/R)” value (host strain YMC17/03/B4730) was “R” and the “susceptibility test value” value (host strain YMC17/03/B4730) was 128. For the same substance, the “antibiotic susceptibility S/I/R” value (host strain YMC17/03/B5000) was “R”, the antibiotic susceptibility value (host strain YMC17/03/B5000) was 128 and the “susceptibility category (S/I/R)” value (host strain YMC17/03/B5000) was “R”. The “susceptibility test value” value (host strain YMC17/03/B5000) was 128, the “antibiotic susceptibility S/I/R” value (host strain YMC17/03/P971) was “R” and the antibiotic susceptibility value (host strain YMC17/03/P971) was 128. The “susceptibility category (S/I/R)” value (host strain YMC17/03/P971) was “R”, the “susceptibility test value” value (host strain YMC17/03/P971) was 128 and the “antibiotic susceptibility S/I/R” value (host strain YMC17/03/R348) was “R”. The antibiotic susceptibility value (host strain YMC17/03/R348) was 128, the “susceptibility category (S/I/R)” value (host strain YMC17/03/R348) was “R” and the “susceptibility test value” value (host strain YMC17/03/R348) was 128. The “antibiotic susceptibility S/I/R” value (host strain YMC17/03/R585) was “R”, the antibiotic susceptibility value (host strain YMC17/03/R585) was 128 and the “susceptibility category (S/I/R)” value (host strain YMC17/03/R585) was “R”. For the same substance, the “susceptibility test value” value (host strain YMC17/03/R585) was 128, the “antibiotic susceptibility S/I/R” value (host strain YMC17/03/R1888) was “R” and the antibiotic susceptibility value (host strain YMC17/03/R1888) was 128. For the same substance, the “susceptibility category (S/I/R)” value (host strain YMC17/03/R1888) was “R”, the “susceptibility test value” value (host strain YMC17/03/R1888) was 128 and the “antibiotic susceptibility S/I/R” value (host strain YMC17/03/R3279) was “R”. For the same substance, the antibiotic susceptibility value (host strain YMC17/03/R3279) was 128, the “susceptibility category (S/I/R)” value (host strain YMC17/03/R3279) was “R” and the “susceptibility test value” value (host strain YMC17/03/R3279) was 128. For the same substance, the “antibiotic susceptibility S/I/R” value (host strain YMC17/03/R4077) was “R”, the antibiotic susceptibility value (host strain YMC17/03/R4077) was 128 and the “susceptibility category (S/I/R)” value (host strain YMC17/03/R4077) was “R”. For the same substance, the “susceptibility test value” value (host strain YMC17/03/R4077) was 128, the “antibiotic susceptibility S/I/R” value (host strain YMC17/03/R4607) was “R” and the antibiotic susceptibility value (host strain YMC17/03/R4607) was 128. The “susceptibility category (S/I/R)” value (host strain YMC17/03/R4607) was “R”, the “susceptibility test value” value (host strain YMC17/03/R4607) was 128 and the “antibiotic susceptibility S/I/R” value (host strain YMC17/04/R488) was “R”. The antibiotic susceptibility value (host strain YMC17/04/R488) was 128, the “susceptibility category (S/I/R)” value (host strain YMC17/04/R488) was “R” and the “susceptibility test value” value (host strain YMC17/04/R488) was 128. The “antibiotic susceptibility S/I/R” value (host strain YMC17/04/R640) was “R”, the antibiotic susceptibility value (host strain YMC17/04/R640) was 128 and the “susceptibility category (S/I/R)” value (host strain YMC17/04/R640) was “R”. The “susceptibility test value” value (host strain YMC17/04/R640) was 128, the “antibiotic susceptibility S/I/R” value (host strain YMC/17/05/R1095) was “R” and the antibiotic susceptibility value (host strain YMC/17/05/R1095) was 128. For the same substance, the “susceptibility category (S/I/R)” value (host strain YMC/17/05/R1095) was “R” and the “susceptibility test value” value (host strain YMC/17/05/R1095) was 128.
